According to PubChem BioAssay (NCI):
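1) Cells in 96-well plates. 2) Compound, 48 h, 5 concentrations. 3) Linear interpolation between surrounding doses. 4) Unreached endpoint = highest concentration. Definition used: TGI = concentration required for complete inhibition of growth.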

What follows are molecules tested on SK-MEL-2 melanoma (assay: growth of human tumour cells (NCI), 48 h).

Compound | TGI
O=C(O)/C(=C/c1ccccc1)c1ccccc1 | > 100 µM
COc1ccc2nccc(/C=C/c3ccc(N(C)C)cc3)c2c1 | > 10 µM
CC(CN(C)C)C(C#N)(c1ccccc1)c1ccccc1 (stereo not drawn) | > 100 µM
COC(=O)C1=C(OC(=O)/C(=C/c2ccccc2)c2ccc([N+](=O)[O-])cc2)C(C(=O)OC)[C@@]2(O)[C@@H](C(=O)OC)[C@H](C)C[C@@H]1[C@@H]2C(=O)OC (stereo partly drawn) | > 100 µM

These molecules were tested on SK-MEL-28 melanoma (assay: growth of human tumour cells (NCI), 48 h).

Compound | TGI
O=C(O)/C(=C/c1ccccc1)c1ccccc1 | > 100 µM
CCOC(=O)C1CSCCSC1 | > 100 µM
COc1ccc2nccc(/C=C/c3ccc(N(C)C)cc3)c2c1 | > 10 µM
CC(CN(C)C)C(C#N)(c1ccccc1)c1ccccc1 (stereo not drawn) | > 100 µM
COC(=O)C1=C(OC(=O)/C(=C/c2ccccc2)c2ccc([N+](=O)[O-])cc2)C(C(=O)OC)[C@@]2(O)[C@@H](C(=O)OC)[C@H](C)C[C@@H]1[C@@H]2C(=O)OC (stereo partly drawn) | > 100 µM

Each molecule was assayed on SK-MEL-5 melanoma (assay: growth of human tumour cells (NCI), 48 h).

Compound | TGI
O=C(O)/C(=C/c1ccccc1)c1ccccc1 | > 100 µM
CCOC(=O)C1CSCCSC1 | > 100 µM
COc1ccc2nccc(/C=C/c3ccc(N(C)C)cc3)c2c1 | > 10 µM
CC(CN(C)C)C(C#N)(c1ccccc1)c1ccccc1 (stereo not drawn) | > 100 µM
COC(=O)C1=C(OC(=O)/C(=C/c2ccccc2)c2ccc([N+](=O)[O-])cc2)C(C(=O)OC)[C@@]2(O)[C@@H](C(=O)OC)[C@H](C)C[C@@H]1[C@@H]2C(=O)OC (stereo partly drawn) | > 100 µM

What follows are molecules tested on SK-OV-3 ovarian (assay: growth of human tumour cells (NCI), 48 h).

Compound | TGI
O=C(O)/C(=C/c1ccccc1)c1ccccc1 | > 100 µM
CCOC(=O)C1CSCCSC1 | > 100 µM
COc1ccc2nccc(/C=C/c3ccc(N(C)C)cc3)c2c1 | > 10 µM
CC(CN(C)C)C(C#N)(c1ccccc1)c1ccccc1 (stereo not drawn) | > 100 µM
COC(=O)C1=C(OC(=O)/C(=C/c2ccccc2)c2ccc([N+](=O)[O-])cc2)C(C(=O)OC)[C@@]2(O)[C@@H](C(=O)OC)[C@H](C)C[C@@H]1[C@@H]2C(=O)OC (stereo partly drawn) | > 100 µM

The molecules below were run on SN12C renal (assay: growth of human tumour cells (NCI), 48 h).

Compound | TGI
O=C(O)/C(=C/c1ccccc1)c1ccccc1 | > 100 µM
CCOC(=O)C1CSCCSC1 | > 100 µM
COc1ccc2nccc(/C=C/c3ccc(N(C)C)cc3)c2c1 | > 10 µM
CC(CN(C)C)C(C#N)(c1ccccc1)c1ccccc1 (stereo not drawn) | > 100 µM
COC(=O)C1=C(OC(=O)/C(=C/c2ccccc2)c2ccc([N+](=O)[O-])cc2)C(C(=O)OC)[C@@]2(O)[C@@H](C(=O)OC)[C@H](C)C[C@@H]1[C@@H]2C(=O)OC (stereo partly drawn) | > 100 µM

These molecules were tested on SNB-19 CNS (assay: growth of human tumour cells (NCI), 48 h).

Compound | TGI
O=C(O)/C(=C/c1ccccc1)c1ccccc1 | > 100 µM
CCOC(=O)C1CSCCSC1 | > 100 µM
COc1ccc2nccc(/C=C/c3ccc(N(C)C)cc3)c2c1 | > 10 µM
CC(CN(C)C)C(C#N)(c1ccccc1)c1ccccc1 (stereo not drawn) | > 100 µM
COC(=O)C1=C(OC(=O)/C(=C/c2ccccc2)c2ccc([N+](=O)[O-])cc2)C(C(=O)OC)[C@@]2(O)[C@@H](C(=O)OC)[C@H](C)C[C@@H]1[C@@H]2C(=O)OC (stereo partly drawn) | > 100 µM

The molecules below were run on SNB-75 CNS (assay: growth of human tumour cells (NCI), 48 h).

Compound | TGI
O=C(O)/C(=C/c1ccccc1)c1ccccc1 | > 100 µM
CCOC(=O)C1CSCCSC1 | > 100 µM
COc1ccc2nccc(/C=C/c3ccc(N(C)C)cc3)c2c1 | > 10 µM
CC(CN(C)C)C(C#N)(c1ccccc1)c1ccccc1 (stereo not drawn) | > 100 µM
COC(=O)C1=C(OC(=O)/C(=C/c2ccccc2)c2ccc([N+](=O)[O-])cc2)C(C(=O)OC)[C@@]2(O)[C@@H](C(=O)OC)[C@H](C)C[C@@H]1[C@@H]2C(=O)OC (stereo partly drawn) | > 100 µM

Each molecule was assayed on SR leukemia (assay: growth of human tumour cells (NCI), 48 h).

Compound | TGI
CCOC(=O)C1CSCCSC1 | > 100 µM

Each molecule was assayed on SW-620 colon (assay: growth of human tumour cells (NCI), 48 h).

Compound | TGI
O=C(O)/C(=C/c1ccccc1)c1ccccc1 | > 100 µM
CCOC(=O)C1CSCCSC1 | > 100 µM
COc1ccc2nccc(/C=C/c3ccc(N(C)C)cc3)c2c1 | > 10 µM
CC(CN(C)C)C(C#N)(c1ccccc1)c1ccccc1 (stereo not drawn) | > 100 µM
COC(=O)C1=C(OC(=O)/C(=C/c2ccccc2)c2ccc([N+](=O)[O-])cc2)C(C(=O)OC)[C@@]2(O)[C@@H](C(=O)OC)[C@H](C)C[C@@H]1[C@@H]2C(=O)OC (stereo partly drawn) | > 100 µM

The molecules below were run on T-47D breast (assay: growth of human tumour cells (NCI), 48 h).

Compound | TGI
O=C(O)/C(=C/c1ccccc1)c1ccccc1 | > 100 µM
COc1ccc2nccc(/C=C/c3ccc(N(C)C)cc3)c2c1 | > 10 µM
CC(CN(C)C)C(C#N)(c1ccccc1)c1ccccc1 (stereo not drawn) | > 100 µM
COC(=O)C1=C(OC(=O)/C(=C/c2ccccc2)c2ccc([N+](=O)[O-])cc2)C(C(=O)OC)[C@@]2(O)[C@@H](C(=O)OC)[C@H](C)C[C@@H]1[C@@H]2C(=O)OC (stereo partly drawn) | > 100 µM

Each molecule was assayed on TK-10 renal (assay: growth of human tumour cells (NCI), 48 h).

Compound | TGI
O=C(O)/C(=C/c1ccccc1)c1ccccc1 | > 100 µM
CCOC(=O)C1CSCCSC1 | > 100 µM
COc1ccc2nccc(/C=C/c3ccc(N(C)C)cc3)c2c1 | > 10 µM
CC(CN(C)C)C(C#N)(c1ccccc1)c1ccccc1 (stereo not drawn) | > 100 µM
COC(=O)C1=C(OC(=O)/C(=C/c2ccccc2)c2ccc([N+](=O)[O-])cc2)C(C(=O)OC)[C@@]2(O)[C@@H](C(=O)OC)[C@H](C)C[C@@H]1[C@@H]2C(=O)OC (stereo partly drawn) | > 100 µM

The molecules below were run on U251 CNS (assay: growth of human tumour cells (NCI), 48 h).

Compound | TGI
O=C(O)/C(=C/c1ccccc1)c1ccccc1 | > 100 µM
CCOC(=O)C1CSCCSC1 | > 100 µM
COc1ccc2nccc(/C=C/c3ccc(N(C)C)cc3)c2c1 | > 10 µM
CC(CN(C)C)C(C#N)(c1ccccc1)c1ccccc1 (stereo not drawn) | > 100 µM
COC(=O)C1=C(OC(=O)/C(=C/c2ccccc2)c2ccc([N+](=O)[O-])cc2)C(C(=O)OC)[C@@]2(O)[C@@H](C(=O)OC)[C@H](C)C[C@@H]1[C@@H]2C(=O)OC (stereo partly drawn) | > 100 µM

What follows are molecules tested on UACC-257 melanoma (assay: growth of human tumour cells (NCI), 48 h).

Compound | TGI
O=C(O)/C(=C/c1ccccc1)c1ccccc1 | > 100 µM
CCOC(=O)C1CSCCSC1 | > 100 µM
COc1ccc2nccc(/C=C/c3ccc(N(C)C)cc3)c2c1 | > 10 µM
CC(CN(C)C)C(C#N)(c1ccccc1)c1ccccc1 (stereo not drawn) | > 100 µM
COC(=O)C1=C(OC(=O)/C(=C/c2ccccc2)c2ccc([N+](=O)[O-])cc2)C(C(=O)OC)[C@@]2(O)[C@@H](C(=O)OC)[C@H](C)C[C@@H]1[C@@H]2C(=O)OC (stereo partly drawn) | > 100 µM

The molecules below were run on UACC-62 melanoma (assay: growth of human tumour cells (NCI), 48 h).

Compound | TGI
O=C(O)/C(=C/c1ccccc1)c1ccccc1 | > 100 µM
COc1ccc2nccc(/C=C/c3ccc(N(C)C)cc3)c2c1 | > 10 µM
CC(CN(C)C)C(C#N)(c1ccccc1)c1ccccc1 (stereo not drawn) | > 100 µM
COC(=O)C1=C(OC(=O)/C(=C/c2ccccc2)c2ccc([N+](=O)[O-])cc2)C(C(=O)OC)[C@@]2(O)[C@@H](C(=O)OC)[C@H](C)C[C@@H]1[C@@H]2C(=O)OC (stereo partly drawn) | > 100 µM

The molecules below were run on UO-31 renal (assay: growth of human tumour cells (NCI), 48 h).

Compound | TGI
O=C(O)/C(=C/c1ccccc1)c1ccccc1 | > 100 µM
CCOC(=O)C1CSCCSC1 | > 100 µM
COc1ccc2nccc(/C=C/c3ccc(N(C)C)cc3)c2c1 | > 10 µM
CC(CN(C)C)C(C#N)(c1ccccc1)c1ccccc1 (stereo not drawn) | > 100 µM
COC(=O)C1=C(OC(=O)/C(=C/c2ccccc2)c2ccc([N+](=O)[O-])cc2)C(C(=O)OC)[C@@]2(O)[C@@H](C(=O)OC)[C@H](C)C[C@@H]1[C@@H]2C(=O)OC (stereo partly drawn) | > 100 µM
